Measurements as given in PubChem BioAssay (NCI).
Several values for one entry are separate records, joined by “and”; a condition that tells them apart may be missing. Identical values can stand only once.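 Protocol summary: plate cells (96-well), add compound at 5 concentrations, incubate 48 h, interpolate endpoints linearly. GI50: concentration for 50% inhibition of growth. TGI: concentration producing complete growth inhibition.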

Legend:
Assay in all cases: inhibition of tumour cell growth, NCI panel, 48 h
[1] = test system: HS 578T breast
[2] = test system: MCF7 breast
[3] = test system: MDA-N
[4] = test system: RXF-631 renal
[5] = test system: SNB-78 CNS

Compound	GI50 [1]	TGI [1]	GI50 [2]	TGI [2]	TGI [3]	TGI [4]	TGI [5]
Nc1[nH]nc2nc(-c3cccs3)cc(C(F)(F)F)c12	> 25 µM	> 25 µM	> 15.8 µM	> 25 µM			
O=C(Nc1ccc(Cl)cc1)Nc1ccc(Nc2nncc3ccccc23)cc1	3.83 µM	27.7 µM	1.43 µM	8.33 µM			
COc1cc(C(=O)NC2CCN(C)CC2)c(F)cc1Nc1ncc2c(n1)N(C1CCCC1)CC(F)(F)C(=O)N2C	< 0.0342 µM	10.4 µM	< 0.01 µM	11.9 µM			
O=C1c2c(O)cccc2C(C2OC(CO)C(O)C(O)C2O)c2cc(CO)cc(O)c21 (stereo not drawn)		> 100 µM		> 100 µM	> 100 µM		
Cc1ccc(Nc2nc(C)c(C(/C=C/c3ccc(/C=C/C(=N/NC(=O)C[n+]4ccccc4)c4sc(Nc5ccc(C)cc5[N+](=O)[O-])nc4C)cc3)=N\NC(=O)C[n+]3ccccc3)s2)c([N+](=O)[O-])c1						> 100 µM	> 100 µM
CCSCCCN(CCCSCC)CCCSCC				> 100 µM	> 100 µM		
CCCOC(=O)N1CCN(/[N+]([O-])=N/Oc2ccc([N+](=O)[O-])cc2[N+](=O)[O-])CC1	4.95 µM	50.9 µM	0.446 µM	2.23 µM			
CCOc1cc2ncc(C#N)c(Nc3ccc(OCc4ccccn4)c(Cl)c3)c2cc1NC(=O)/C=C/CN(C)C	0.54 µM and 0.351 µM	66.6 µM and > 5.76 µM	1.65 µM and 0.927 µM	3.22 µM and > 6 µM			
COc1ccc2c(c1)C(=O)c1c-2c(N(C)C)nc2ccccc12	> 100 µM	> 100 µM	> 100 µM	> 100 µM			
C/C=C(\C)C(=O)O[C@H]1C=CC(=O)O[C@@H]1CC[C@H](O)[C@H](C)O	34.8 µM	94.2 µM	32.6 µM	> 100 µM			
O=[N+]([O-])c1cccc([As]=[As]c2cccc([N+](=O)[O-])c2)c1 (stereo not drawn)	0.098 µM	0.498 µM	0.0327 µM	0.137 µM			
C/C=C(/COC(C)=O)C(=O)OC1C=C(C=O)C(C)(C)C=C1C (stereo not drawn)		> 100 µM		> 100 µM	> 100 µM		
C[Si](C)(C)c1ccc(-c2sc(-c3ccc([Si](C)(C)C)s3)c3c2C[Si]2(C3)Cc3c(-c4ccc([Si](C)(C)C)s4)sc(-c4ccc([Si](C)(C)C)s4)c3C2)s1						> 100 µM	> 100 µM
COc1cccc(-n2ncc3c(N/N=C/c4ccncc4)ncnc32)c1	0.322 µM	> 6.41 µM	> 12.2 µM	> 25 µM			
Nc1nc(Nc2ccc(C3CCC(N4CCOCC4)CC3)cc2)nn1-c1ccccn1 (stereo not drawn)	1.64 µM	7.41 µM	3.23 µM	35.3 µM			
NC(=S)N/N=C/c1ncccc1N	37.5 µM	> 100 µM	0.32 µM	27.2 µM and > 10 µM	> 10 µM		
Cc1[nH]c2ccccc2c1C1Cc2ccccc2N1C(=O)/C=C/C(=O)O (stereo not drawn)						41.3 µM	> 100 µM
Cc1ccc(C)c(NC(=O)CC/C(=N\NC(=O)c2c(O)ccc3ccccc23)C(C)C(=O)c2ccc(O)cc2)c1 (stereo not drawn)							> 100 µM
CC#CC(=O)SCCNC(=O)CC		> 10 µM		> 10 µM	> 10 µM		

Compound	GI50 [1]	TGI [1]	GI50 [2]	TGI [2]	TGI [3]	TGI [4]	TGI [5]
O=CC1CCCc2ccccc21 (stereo not drawn)							> 100 µM
Cc1cc(Cl)ccc1NC(=O)CC/C(CC(=O)C(C)C)=N\NC(=O)C[n+]1ccccc1						> 100 µM	> 100 µM
COc1ccc(OC)c(-c2c(C#N)c(N)nc(N3CCOCC3)c2C#N)c1	87.4 µM	> 100 µM	> 100 µM	> 100 µM			
COC(=O)CCC(NC(=S)N/N=C/c1ccco1)C(=O)OC (stereo not drawn)						> 100 µM	> 100 µM
COc1ccc(C(=O)C(c2ccc(OC)cc2)C2(O)C(=O)Nc3c2ccc(Cl)c3C)cc1 (stereo not drawn)						> 100 µM	> 100 µM
CC(=O)C1C(=O)C(=O)N(c2ccccc2C(C)C)C1=O (stereo not drawn)							> 100 µM
O=C(/C=C/c1ccc([N+](=O)[O-])cc1)c1ccc2c3c(cccc13)CC2		> 30.8 µM	2.7 µM	> 25.4 µM			
COC(=O)C1=CC2C(=O)OC1CC2C#N (stereo not drawn)							> 100 µM
COc1ccc(C(=O)c2cc3c(N)c(C(=O)Nc4cccc5ccccc45)sc3nc2C)cc1	0.198 µM	> 50 µM	0.191 µM	> 50 µM			
Cc1ccc(S(=O)(=O)Nc2cccc3[nH]c(C(F)(F)F)nc23)cc1	0.887 µM	38.2 µM	0.389 µM	> 54.5 µM			
CCc1ccc(NC(=O)COC(=O)c2cc([N+](=O)[O-])ccc2Sc2nnnn2C)cc1	2.65 µM	9.36 µM	20.1 µM	60.6 µM			
CCOc1ccccc1N=Nc1c(C)[nH]n(-c2nc(-c3ccccc3)cs2)c1=O	29.2 µM	> 95.1 µM	12.4 µM	> 100 µM			
COc1cc(C2C(Cl)C(=O)N2NC(=O)c2ccc(N)cc2)ccc1O (stereo not drawn)							> 100 µM
CC1=C(CO)C(=O)O[C@@H]([C@@H](C)[C@H]2CC[C@H]3[C@@H]4C[C@@H](O)[C@@]5(O)CC=CC(=O)[C@]5(C)[C@H]4CC[C@]23C)C1		> 100 µM		> 100 µM	> 100 µM		
O=C(Nc1cccc(NC(=O)Nc2cc(C(F)(F)F)ccc2Cl)c1)Nc1cc(C(F)(F)F)ccc1Cl	2.64 µM	8.81 µM	0.516 µM	32.9 µM			
N#CC(c1nc2ccccc2nc1Cl)S(=O)(=O)c1ccccc1 (stereo not drawn)							94.4 µM
C[C@]12CC[C@H]3[C@@H](CC[C@]4(O)C[C@@H](O)CC[C@]34/C=N/O)[C@@]1(O)CC[C@@H]2C1=COC(=O)C1		> 100 µM			1.03 µM		
Cc1ccc(CNc2c3ccccc3nc3cc(NC(=O)CCN4CCCC4)ccc23)cc1			0.453 µM	1.77 µM			
